Measured values taken from patent US9862686B2, “N1-sulfonyl-5-fluoropyrimidinone derivatives” (Adama Makhteshim Ltd., priority 2009, dated 2018).
Like-named read-outs stand apart in the source and are kept apart here.

How the values were obtained:
[1] = test system: Mycosphaerella graminicola; Anamorph: Septoria tritici; Bayer Code SEPTTR; test: Fungicidal activity: leaf blotch of wheat, protectant and curative treatment of inoculated wheat plants; type: in vivo; conditions: Zymoseptoria tritici
Procedure: Evaluation of Fungicidal Activity: Leaf Blotch of Wheat (Mycosphaerella graminicola; Anamorph: Septoria tritici; Bayer Code SEPTTR)
Wheat plants (variety Yuma) were grown from seed in a greenhouse in 50% mineral soil/50% soil-less Metro mix until the first leaf was fully emerged, with 7-10 seedlings per pot. These plants were inoculated with an aqueous spore suspension of Septoria tritici either prior to or after fungicide treatments. After inoculation the plants were kept in 100% relative humidity (one day in a dark dew chamber followed by two to three days in a lighted dew chamber) to permit spores to germinate and infect the leaf. The plants were then transferred to a greenhouse for disease to develop.
The following table presents the activity of typical compounds of the present disclosure when evaluated in these experiments. The effectiveness of the test compounds in controlling disease was determined by assessing the severity of disease on treated plants, then converting the severity to percent control based on the level of disease on untreated, inoculated plants.
In each case of Table II the rating scale is as follows: […]

[2] = 24 h, One-Day Protectant (1DP), 100 ppm, wheat plants (variety Yuma), percent control vs untreated inoculated plants, read-out: SEPTTR 100 PPM 1DP (% Disease Control rating)
[3] = 72 h, Three-Day Curative (3DC), 100 ppm, wheat plants (variety Yuma), percent control vs untreated inoculated plants, read-out: SEPTTR 100 PPM 3DC (% Disease Control rating)

Row | SMILES | melting point [°C] | pest or weed control at 100 ppm [1, 2] [%] | pest or weed control at 100 ppm [1, 3] [%] | pest or weed control at 100 ppm ([1]; 24 h, read-out: SEPTTR 100 PPM 1DP (% Disease Control rating)) [%] | pest or weed control at 100 ppm ([1]; 72 h, read-out: SEPTTR 100 PPM 3DC (% Disease Control rating)) [%]
1 | O=C(Nc1nc(=O)n(S(=O)(=O)c2ccc(Cl)cc2)cc1F)Oc1ccccc1 | 192 to 195 |  |  |  | 
2 | CN(C)/C=N/c1nc(=O)n(S(=O)(=O)c2ccccc2)cc1F [Cmpd 1, N′-(1-benzenesulfonyl-5-fluoro-2-oxo-1,2-dihydro-pyrimidin-4-yl)-N,N-dimethylformamidine] | 203 to 204 | 76 to 100 | 76 to 100 |  | 
3 | CN(C)/C=N/c1nc(=O)n(S(=O)(=O)c2ccc(Cl)cc2)cc1F [Cmpd 2, N′-[1-(4-chloro-benzenesulfonyl)-5-fluoro-2-oxo-1,2-dihydro-pyrimidin-4-yl]-N,N-dimethylformamidine] | 207 to 210 | 76 to 100 | 76 to 100 |  | 
4 | CN(C)/C=N/c1nc(=O)n(S(C)(=O)=O)cc1F [Cmpd 3] | 133 to 134 | 76 to 100 | 76 to 100 |  | 
5 | Cc1ccc(S(=O)(=O)n2cc(F)c(/N=C/N(C)C)nc2=O)cc1 [Cmpd 4] | 199 to 203 | 76 to 100 | 76 to 100 |  | 
6 | COc1ccc(S(=O)(=O)n2cc(F)c(/N=C/N(C)C)nc2=O)cc1 [Cmpd 5] | 188 to 190 | 76 to 100 | 76 to 100 |  | 
7 | CCCS(=O)(=O)n1cc(F)c(/N=C/N(C)C)nc1=O [Cmpd 6] | 144 to 145 | 76 to 100 | 76 to 100 |  | 
8 | CN(C)/C=N/c1nc(=O)n(S(=O)(=O)c2cccs2)cc1F [Cmpd 7] | 205 to 207 | 76 to 100 | 76 to 100 |  | 
9 | Nc1nc(=O)n(S(=O)(=O)c2ccc(Cl)cc2)cc1F [Cmpd 8, 4-amino-1-(4-chloro-benzenesulfonyl)-5-fluoro-1H-pyrimidin-2-one] |  | 76 to 100 | 76 to 100 |  | 
10 | Nc1nc(=O)n(S(=O)(=O)c2cccs2)cc1F [Cmpd 9] | 187 to 189 | 76 to 100 | 76 to 100 |  | 
11 | CCCS(=O)(=O)n1cc(F)c(N)nc1=O [Cmpd 10] | 144 to 146 | 76 to 100 | 76 to 100 |  | 
12 | Nc1nc(=O)n(S(=O)(=O)Cc2ccc(Cl)cc2)cc1F [Cmpd 20] | 168 to 170 |  |  |  | 
13 | Cc1ccc(CS(=O)(=O)n2cc(F)c(N)nc2=O)cc1 [Cmpd 21] | 164 to 166 |  |  |  | 
14 | Cc1cc(S(=O)(=O)n2cc(F)c(N)nc2=O)ccc1Oc1ncc(C(F)(F)F)cc1Cl [Cmpd 22] |  | 76 to 100 | 76 to 100 |  | 
15 | CN(C)/C=N/c1nc(=O)n(S(=O)(=O)c2cn(C)cn2)cc1F [Cmpd 28, N′-[5-fluoro-1-(1-methyl-1H-imidazole-4-sulfonyl)-2-oxo-1,2-dihydro-pyrimidin-4-yl]-N,N-dimethylformamidine] |  | 26 to 50 | 51 to 75 |  | 
16 | CN(C)/C=N/c1nc(=O)n(S(=O)(=O)Cc2ccccc2)cc1F [Cmpd 30] | 152 to 154 |  |  |  | 
17 | CN(C)/C=N/c1nc(=O)n(S(=O)(=O)Cc2ccc(Cl)cc2)cc1F [Cmpd 31] | 140 to 143 |  |  |  | 
18 | Cc1ccc(CS(=O)(=O)n2cc(F)c(/N=C/N(C)C)nc2=O)cc1 [Cmpd 32] | 150 to 152 |  |  |  | 
19 | O=C(Nc1nc(=O)n(S(=O)(=O)c2ccccc2)cc1F)c1ccccc1 [Cmpd 33, N-(1-benzenesulfonyl-5-fluoro-2-oxo-1,2-dihydro-pyrimidin-4-yl)-benzamide] |  |  |  | 76 to 100 | 26 to 50
20 | O=C(Nc1nc(=O)n(S(=O)(=O)c2ccc(Cl)cc2)cc1F)c1ccc(Cl)cc1 [Cmpd 38, 4-chloro-N-[1-(4-chlorobenzenesulfonyl)-5-fluoro-2-oxo-1,2-dihydropyrimidin-4-yl]benzamideamide] |  | 76 to 100 | 0 to 25 |  | 
21 | O=C(Nc1ccccc1)Nc1nc(=O)n(S(=O)(=O)c2ccc(Cl)cc2)cc1F [Cmpd 41] | 211 to 214 |  |  |  | 
